Columns and labels:
[1] = system: Diabrotica balteata (rootworm larvae); test: pest mortality, Diabrotica balteata, residual test; assay type: in vivo; conditions: 500 ppm, filter paper/maize seed, duration 3 days
Protocol: (§1) The activity of each compound was determined using a variety of insect mites and nematode pests. The compound was used in the form of liquid preparations containing from 100 to 500 parts per million (ppm) by weight of the compound. The preparations were made by dissolving the compound in acetone and diluting the solutions with water containing 0.1% by weight of a wetting agent sold under the trade name "SYNPERONIC" NX until the liquid preparations contained the required concentration of the product. "SYNPERONIC" is a Registered Trade Mark.
(§2) The test procedure adopted with regard to each pest was basically the same and comprised supporting a number of the pests on a medium which was usually a host plant or a food stuff on which the pests feed, and treating either or both the pests and the medium with the preparations. The mortality of the pests was then assessed at periods usually varying from one to seven days after the treatment. […]

[2] = system: Puccinia recondita; test: foliar fungal disease control, Puccinia recondita on wheat; assay type: in vivo; conditions: 100 ppm foliar spray plus root drench approx. 40 ppm a.i./dry soil
Protocol: (§3) The compounds were tested against a variety of foliar fungal diseases of plants. The technique employed was as follows.
(§4) The plants were grown in John Innes Potting Compost (No 1 or 2) in 4 cm diameter minipots. The test compounds were formulated either by bead milling with aqueous Dispersol T or as a solution in acetone or acetone/ethanol which was diluted to the required concentration immediately before use. […] The sprays were applied to maximum retention and the root drenches to a final concentration equivalent to approximately 40 ppm a.i./dry soil. Tween 20, to give a final concentration of 0.05%, was added when the sprays were applied to cereals.
(§5) For most of the tests the compound was applied to the soil (roots) and to the foliage (by spraying) one or two days before the plant was inoculated with the disease. An exception was the test on Erysiphe graminis in which the plants were inoculated 24 hours before treatment. Foliar pathogens were applied by spray as spore suspensions onto the leaves of test plants. After inoculation, the plants were put into an appropriate environment to allow infection to proceed and then incubated until the disease was ready for assessment. The period between inoculation and assessment varied from four to fourteen days according to the disease and environment.
(§6) The disease control was recorded by the following grading: […]

[3] = system: Erysiphe graminis hordei; test: foliar fungal disease control, Erysiphe graminis hordei on barley; assay type: in vivo; conditions: 100 ppm foliar spray plus root drench approx. 40 ppm a.i./dry soil; inoculated 24 hours before treatment
Protocol: as §3, §4, §5, §6

[4] = system: Tetranychus uritcae (spider mites and ova); test: pest mortality, Tetranychus uritcae, contact test; assay type: in vivo; conditions: 500 ppm, French bean leaf, duration 3 days
Protocol: as §1, §2

[5] = system: Musca domestica (houseflies - adults); test: pest mortality, Musca domestica, contact test; assay type: in vivo; conditions: 500 ppm, cotton wool/sugar, duration 1 day
Protocol: as §1, §2

[6] = system: Pyricularia oryzae; assay type: in vivo, Pyricularia oryzae (rice); conditions: 100 ppm foliar spray plus root drench approx. 40 ppm a.i./dry soil
[7] = system: Plasmopara viticola; test: foliar fungal disease control, Plasmopara viticola on vine; assay type: in vivo; conditions: 100 ppm foliar spray plus root drench approx. 40 ppm a.i./dry soil
Protocol: as §3, §4, §5, §6

[8] = system: Chilo partellus (maize stem borers); test: pest mortality, Chilo partellus, residual test; assay type: in vivo; conditions: 500 ppm, oil seed rape leaf, duration 3 days
Protocol: as §1, §2

[9] = system: Cercospora arachidicola; test: foliar fungal disease control, Cercospora arachidicola on peanut; assay type: in vivo; conditions: 100 ppm foliar spray plus root drench approx. 40 ppm a.i./dry soil
Protocol: as §3, §4, §5, §6

[10] = system: Venturia inaequalis; test: foliar fungal disease control, Venturia inaequalis on apple; assay type: in vivo; conditions: 100 ppm foliar spray plus root drench approx. 40 ppm a.i./dry soil
Protocol: as §3, §4, §5, §6

[11] = system: Phytophthora infestans; assay type: in vivo, Phytophthora infestans (tomato); conditions: 100 ppm foliar spray plus root drench approx. 40 ppm a.i./dry soil

Compound | grading of mortality, DB [1] | disease control grading, Puccinia recondita (wheat) [2] | disease control grading, Erysiphe graminis hordei (barley) [3] | grading of mortality, TUe [4] | grading of mortality, MD [5] | disease control grading, Pyricularia oryzae (rice) [6] | disease control grading, Plasmopara viticola (vine) [7] | grading of mortality, CP [8] | disease control grading, Cercospora arachidicola (peanut) [9] | disease control grading, Venturia inaequalis (apple) [10] | disease control grading, Phytophthora infestans (tomato) [11]
CO/C=C(/C(=O)OC)c1ccccc1Oc1ccc(Cl)cn1 [Compound 14 (Table I), (E)-methyl 2-[2'-(5"-chloropyridin-2"-yloxy)phenyl]-3-methoxyacrylate] | 5 (50-79% mortality) | 4 | 4 | 0 (less than 50% mortality) | 9 (80-100% mortality) | 4 | 4 | 9 (80-100% mortality) | 4 | 2 (6-25% of disease on untreated plants) | –
CO/C=C(/C(=O)OC)c1ccccc1Oc1ccc(Br)cn1 [Compound 15 (Table I)] | 9 (80-100% mortality) | 4 | 4 | 0 (less than 50% mortality) | 0 (less than 50% mortality) | 3 (trace-5% of disease on untreated plants) | 4 | – | 3 (trace-5% of disease on untreated plants) | – | –
CO/C=C(/C(=O)OC)c1ccccc1Oc1ccc(N)cn1 [Compound 131 (Table I)] | – | 3 (trace-5% of disease on untreated plants) | 0 (60-100% of disease on untreated plants) | – | – | 0 (60-100% of disease on untreated plants) | 0 (60-100% of disease on untreated plants) | – | 0 (60-100% of disease on untreated plants) | 0 (60-100% of disease on untreated plants) | 0 (60-100% of disease on untreated plants)
CO/C=C(/C(=O)OC)c1ccccc1Oc1nc(F)cc(F)n1 [Compound 137 (Table I)] | – | 2 (6-25% of disease on untreated plants) | 0 (60-100% of disease on untreated plants) | – | – | 0 (60-100% of disease on untreated plants) | 0 (60-100% of disease on untreated plants) | – | 0 (60-100% of disease on untreated plants) | 4 | 0 (60-100% of disease on untreated plants)
CO/C=C(/C(=O)OC)c1ccccc1Oc1cc(F)nc(F)n1 [Compound 138 (Table I)] | – | 4 | 0 (60-100% of disease on untreated plants) | – | – | 0 (60-100% of disease on untreated plants) | 4 | – | 0 (60-100% of disease on untreated plants) | 3 (trace-5% of disease on untreated plants) | 0 (60-100% of disease on untreated plants)
CO/C=C(/C(=O)OC)c1ccccc1Oc1cc(C(Cl)(Cl)Cl)nc(Cl)n1 [Compound 139 (Table I)] | – | 4 | 0 (60-100% of disease on untreated plants) | – | – | 2 (6-25% of disease on untreated plants) | 4 | – | 4 | 0 (60-100% of disease on untreated plants) | 0 (60-100% of disease on untreated plants)
CO/C=C(/C(=O)OC)c1ccccc1Oc1cc(Cl)nc(Cl)n1 [Compound 140 (Table I)] | – | 2 (6-25% of disease on untreated plants) | 0 (60-100% of disease on untreated plants) | – | – | 0 (60-100% of disease on untreated plants) | 4 | – | 0 (60-100% of disease on untreated plants) | 0 (60-100% of disease on untreated plants) | 0 (60-100% of disease on untreated plants)
CO/C=C(/C(=O)OC)c1ccccc1Oc1ccc2ccccc2n1 [Compound 165 (Table I)] | – | 2 (6-25% of disease on untreated plants) | 4 | – | – | 2 (6-25% of disease on untreated plants) | 4 | – | 4 | 4 | 3 (trace-5% of disease on untreated plants)
CO/C=C(/C(=O)OC)c1ccccc1Oc1nc(C)cc(Cl)n1 [Compound 166 (Table I)] | – | 4 | 4 | – | – | 1 (26-59% of disease on untreated plants) | 3 (trace-5% of disease on untreated plants) | – | 4 | 4 | 3 (trace-5% of disease on untreated plants)
